Measurements reported in patent publication US7811352B2, “Fertilizer compositions and methods of using” (priority 2005, dated 2010).

Assays:
Assay type in all cases: in vivo
[1] = test system: Pennlinks creeping bentgrass maintained as a golf fairway; experiment: Turfgrass quality rating, fairway creeping bentgrass (Example 15); settings: scale of 1-9
Text: (§1) In this Example, the effect of a fertilizer comprising lysine on cool season fairway turfgrass growth was examined. The effects of lysine (HCl) and LIQUID LYSINE on a common type of golf course fairway variety turfgrass (Pennlinks creeping bentgrass maintained as a golf fairway) were compared with those of urea, Milorganite and a blended fertilizer (a blend of methylene urea and urea in an approximately 1:1 ratio).
Fifteen fertilizer treatments comprising three concentrations of each fertilizer composition (Milorganite (N—P—K, 6-2-0), urea (N—P—K, 46-0-0), a blended fertilizer, LIQUID LYSINE (N—P—K, 10-2-1), and lysine (HCl) (N—P—K, 15-2-1)) were prepared and applied to 3 replications of a well established Pennlinks creeping bentgrass maintained as a golf fairway grass. The urea, lysine (HCl), and LIQUID LYSINE were dissolved/suspended in 1.5 gal water prior to application. […] The urea, LIQUID LYSINE and lysine (HCl) were applied as foliar liquids, while Milorganite and the blended fertilizer were applied as granular fertilizers. Plot size was 4 ft×8 ft laid out in a replicated complete block design. Plots were mowed at 0.5 inches before fertilizer application and mowed three times per week to 0.5 inch height. Grass clippings were not removed from the plots and no supplemental cultural maintenance was applied. Irrigation (0.15 inch) was applied following application and every other day thereafter. Plots were rated for turfgrass quality (scale of 1-9 where 9=dark green turf, 1=dead/brown turf, and 6=minimally acceptable turf and phytotoxic injury (scale of 0-9 where 9=significant foliar injury and 2=minimally objectional foliar injury) throughout the study period. Quality was measured prior to application (day 0) and day 37, day 70 and day 95 after application. Injury was measured on day 37, day 70 and day 95 after application. All data was subject to statistical analysis and significant means were determined. Average turfgrass quality ratings for the treatments are presented in Table 24.

[2] = test system: Moonlight Kentucky bluegrass; experiment: Blade density rating, Kentucky bluegrass lawn (Example 17); settings: Day 70
Text: as §1, with “lawn variety” for “fairway”, “variety” for “type”, “law” for “golf course fairway variety”, “(Moonlight Kentucky bluegrass)” for “(Pennlinks creeping bentgrass maintained as a golf fairway)”
Fifteen fertilizer treatments comprising three concentrations of each fertilizer composition (Milorganite N—P—K, 6-2-0), urea (N—P—K, 46-0-0), a blended fertilizer, LIQUID LYSINE (N—P—K, 10-2-1), and lysine (HCl) (N—P—K, 15-2-1)) were prepared and applied to 3 replications of newly established “Moonlight” variety Kentucky bluegrass lawn turfgrass. The urea, lysine (HCl), and LIQUID LYSINE were dissolved/suspended in 1.5 gal water prior to application. […], 1.0 lb N/1000 ft^2/year and 3.0 lb N/1000 ft^2/year, The urea, LIQUID LYSINE and lysine (HCl) were applied as foliar liquids, while Milorganite and the blended fertilizer were applied as granular fertilizers. Plot size was 4 ft×8 ft laid out in a replicated complete block design. Plots were mowed at 2.0 inches before fertilizer application and mowed two times per week to 2.0 inch height. Grass clippings were not removed from the plots and no supplemental cultural maintenance or pest management was applied. Irrigation (0.15 inch) was applied following application and thereafter only when necessary to insure survival of the turf. Plots were rated for turfgrass quality (scale of 1-9 where 9=dark green turf, 1=dead/brown turf, and 6=minimally acceptable turf) and phytotoxic injury (scale of 0-9 where 9=significant foliar injury and 2=minimally objectionable foliar injury) throughout the study period. Quality was measured prior to application (day 0) and day 37, day 70 and day 95 after application. Injury was measured on day 37 and day 70 after application. In addition, blade density of the grass was measured on day 70 after application (scale of 1-9, where 9=very dense turf, 1=low density turf). All data was subject to statistical analysis and significant means were determined.

[3] = test system: ultra-dwarf Bermuda grass; experiment: Phytotoxicity rating, ultra-dwarf Bermuda grass greens (Example 11); settings: scale 0-5, 5=worst
Text: In this Example, the effect of a fertilizer comprising lysine on warm season turfgrass growth was examined. The effects of lysine (HCl) and LIQUID LYSINE on a common type of golf course greens quality turfgrass (ultra-dwarf Bermuda grass) were compared with those of urea and Milorganite.
Twelve fertilizer treatments comprising three concentrations of each fertilizer composition (Milorganite (N—P—K, 6-2-0), urea (N—P—K, 46-0-0), LIQUID LYSINE (N—P—K, 10-2-1), and lysine (HCl) (N—P—K, 15-2-1)) were prepared and applied to 3 replications of ultra-dwarf Bermuda grass. The lysine (HCl) was dissolved in water prior to application. Each fertilizer treatment was applied in concentrations of 0.125 lb N/1000 ft^2/week, 0.25 lb N/1000 ft^2/week and 0.75 lb N/1000 ft^2/week. The urea, LIQUID LYSINE and lysine (HCl) were applied as foliar liquids, while Milorganite was applied as a granular fertilizer. Plot size was 1 m×1 m set up as a randomized complete block. Plots were mowed at 0.125 inches before fertilizer application. Irrigation (0.15 inch) was applied following application. Plots were rated for turfgrass quality and color (scale of 1-10 where 10=dark green turf, 1=dead/brown turf, and 6=initially acceptable turf) and phytotoxicity (scale of 0-5, where 5=worst, and 2=minimally objectionable) throughout the study period. Quality, color, and phytotoxicity were measured on 2 days before application (day −2) and day 2, day 5, day 15 and day 21 after application. All data was subject to statistical analysis and significant means were determined. Average turfgrass quality ratings for the treatments are presented in Table 12 and the quality results for application rates of 0.25 lb N/1000 ft^2/week are graphically presented in FIG. 6.

[4] = Weekly Rate 0.5 lbs N/1000 ft^2, Day 0
[5] = Weekly Rate 0.5 lbs N/1000 ft^2, Day 37
[6] = Weekly Rate 0.5 lbs N/1000 ft^2, Day 70
[7] = Weekly Rate 0.5 lbs N/1000 ft^2, Day 95
[8] = Weekly Rate 1.0 lbs N/1000 ft^2, Day 0
[9] = Weekly Rate 1.0 lbs N/1000 ft^2, Day 37
[10] = Weekly Rate 1.0 lbs N/1000 ft^2, Day 70
[11] = Weekly Rate 1.0 lbs N/1000 ft^2, Day 95
[12] = Weekly Rate 3.0 lbs N/1000 ft^2, Day 0
[13] = Weekly Rate 3.0 lbs N/1000 ft^2, Day 37
[14] = Weekly Rate 3.0 lbs N/1000 ft^2, Day 70
[15] = Weekly Rate 3.0 lbs N/1000 ft^2, Day 95
[16] = Weekly Rate 0.5 lbs N/1000 ft^2
[17] = Weekly Rate 1.0 lbs N/1000 ft^2
[18] = Weekly Rate 3.0 lbs N/1000 ft^2
[19] = Weekly Rate 0.125 lbs N/1000 ft^2, Day 2
[20] = Weekly Rate 0.125 lbs N/1000 ft^2, Day 5
[21] = Weekly Rate 0.125 lbs N/1000 ft^2, Day 15
[22] = Weekly Rate 0.125 lbs N/1000 ft^2, Day 21
[23] = Weekly Rate 0.125 lbs N/1000 ft^2, Day −2 (before application)
[24] = Weekly Rate 0.25 lbs N/1000 ft^2, Day 2
[25] = Weekly Rate 0.25 lbs N/1000 ft^2, Day 5
[26] = Weekly Rate 0.25 lbs N/1000 ft^2, Day 15
[27] = Weekly Rate 0.25 lbs N/1000 ft^2, Day 21
[28] = Weekly Rate 0.25 lbs N/1000 ft^2, Day −2 (before application)
[29] = Weekly Rate 0.75 lbs N/1000 ft^2, Day 2
[30] = Weekly Rate 0.75 lbs N/1000 ft^2, Day 5
[31] = Weekly Rate 0.75 lbs N/1000 ft^2, Day 15
[32] = Weekly Rate 0.75 lbs N/1000 ft^2, Day 21
[33] = Weekly Rate 0.75 lbs N/1000 ft^2, Day −2 (before application)

NC(N)=O [Urea, urea, reference compound]
7.0ab: Density Rating - Kentucky Bluegrass [2, 18]
5.3cde: Density Rating - Kentucky Bluegrass [2, 17]
6.7ab: Quality Rating - Fairway Bentgrass [1, 5]
6.0: Quality Rating - Fairway Bentgrass [1, 6] | Quality Rating - Fairway Bentgrass [1, 14]
6.7: Quality Rating - Fairway Bentgrass [1, 10]
0: Phytotoxicity - Dwarf Bermuda Grass [3, 19] | Phytotoxicity - Dwarf Bermuda Grass [3, 20] | Phytotoxicity - Dwarf Bermuda Grass [3, 21] | Phytotoxicity - Dwarf Bermuda Grass [3, 22] | Phytotoxicity - Dwarf Bermuda Grass [3, 23] | Phytotoxicity - Dwarf Bermuda Grass [3, 24] | Phytotoxicity - Dwarf Bermuda Grass [3, 25] | Phytotoxicity - Dwarf Bermuda Grass [3, 26] | Phytotoxicity - Dwarf Bermuda Grass [3, 27] | Phytotoxicity - Dwarf Bermuda Grass [3, 28] | Phytotoxicity - Dwarf Bermuda Grass [3, 29] | Phytotoxicity - Dwarf Bermuda Grass [3, 30] | Phytotoxicity - Dwarf Bermuda Grass [3, 31] | Phytotoxicity - Dwarf Bermuda Grass [3, 32] | Phytotoxicity - Dwarf Bermuda Grass [3, 33]
7.0a: Quality Rating - Fairway Bentgrass [1, 7] | Quality Rating - Fairway Bentgrass [1, 8] | Quality Rating - Fairway Bentgrass [1, 9] | Quality Rating - Fairway Bentgrass [1, 11] | Quality Rating - Fairway Bentgrass [1, 13] | Quality Rating - Fairway Bentgrass [1, 15]
6.7a: Quality Rating - Fairway Bentgrass [1, 4]
5.0de: Density Rating - Kentucky Bluegrass [2, 16]
6.3a: Quality Rating - Fairway Bentgrass [1, 12]

Cl.NCCCC[C@H](N)C(=O)O [Lys (HCl) 15% N, L-lysine monohydrochloride]
6.3a: Quality Rating - Fairway Bentgrass [1, 4]
6.7ab: Quality Rating - Fairway Bentgrass [1, 13]
0: Phytotoxicity - Dwarf Bermuda Grass [3, 19] | Phytotoxicity - Dwarf Bermuda Grass [3, 20] | Phytotoxicity - Dwarf Bermuda Grass [3, 21] | Phytotoxicity - Dwarf Bermuda Grass [3, 22] | Phytotoxicity - Dwarf Bermuda Grass [3, 23] | Phytotoxicity - Dwarf Bermuda Grass [3, 24] | Phytotoxicity - Dwarf Bermuda Grass [3, 25] | Phytotoxicity - Dwarf Bermuda Grass [3, 26] | Phytotoxicity - Dwarf Bermuda Grass [3, 27] | Phytotoxicity - Dwarf Bermuda Grass [3, 28] | Phytotoxicity - Dwarf Bermuda Grass [3, 29] | Phytotoxicity - Dwarf Bermuda Grass [3, 30] | Phytotoxicity - Dwarf Bermuda Grass [3, 31] | Phytotoxicity - Dwarf Bermuda Grass [3, 32] | Phytotoxicity - Dwarf Bermuda Grass [3, 33]
6.0: Quality Rating - Fairway Bentgrass [1, 6]
6.3abc: Density Rating - Kentucky Bluegrass [2, 17]
7.0a: Quality Rating - Fairway Bentgrass [1, 7] | Quality Rating - Fairway Bentgrass [1, 8] | Quality Rating - Fairway Bentgrass [1, 9] | Quality Rating - Fairway Bentgrass [1, 11] | Quality Rating - Fairway Bentgrass [1, 12] | Quality Rating - Fairway Bentgrass [1, 15]
6.0ab: Quality Rating - Fairway Bentgrass [1, 5]
7.0ab: Density Rating - Kentucky Bluegrass [2, 18]
5.3cde: Density Rating - Kentucky Bluegrass [2, 16]
5.7: Quality Rating - Fairway Bentgrass [1, 10] | Quality Rating - Fairway Bentgrass [1, 14]
